According to US6124269A, “2-Halo-6-O-substituted ketolide derivatives” (priority 1998, dated 2000):
Values after ≈ are worked out from the molar mass of the structure shown.

Experiments:
Format in all cases: cell-based
[1] = system: Streptococcus pyogenes PIU 2548; assay: In vitro agar dilution MIC, organism code NN; conditions: unit assumed
Protocol: (§1) Representative compounds of the present invention were assayed in vitro for antibacterial activity as follows: Twelve petri dishes containing successive aqueous dilutions of the test compound mixed with 10 mL of sterilized Brain Heart Infusion (BHI) agar (Difco 0418-01-5) were prepared. Each plate was inoculated with 1:100 (or 1:10 for slow-growing strains, such as Micrococcus and Streptococcus) dilutions of up to 32 different microorganisms, using a Steers replicator block. The inoculated plates were incubated at 35-37° C. for 20 to 24 hours. In addition, a control plate, using BHI agar containing no test compound, was prepared and incubated at the beginning and end of each test.
(§2) An additional plate containing a compound having known susceptibility patterns for the organisms being tested and belonging to the same antibiotic class as the test compound was also prepared and incubated as a further control, as well as to provide test-to-test comparability.
(§3) After incubation, each plate was visually inspected. The minimum inhibitory concentration (MIC) was defined as the lowest concentration of drug yielding no growth, a slight haze, or sparsely isolated colonies on the inoculum spot as compared to the growth control.

[2] = system: Streptococcus pneumoniae 5979; assay: In vitro agar dilution MIC, organism code ZZ; conditions: unit assumed
Protocol: as §1, §2, §3

[3] = system: Streptococcus pneumoniae ATCC 6303; assay: In vitro agar dilution MIC, organism code XX; conditions: unit assumed
Protocol: as §1, §2, §3

[4] = system: Streptococcus pyogenes 930; assay: In vitro agar dilution MIC, organism code MM; conditions: unit assumed
Protocol: as §1, §2, §3

[5] = system: Streptococcus pyogenes EES61; assay: In vitro agar dilution MIC, organism code LL; conditions: unit assumed
Protocol: as §1, §2, §3

[6] = system: Haemophilis influenzae DILL AMP R; assay: In vitro agar dilution MIC, organism code WW; conditions: unit assumed
Protocol: as §1, §2, §3

[7] = system: Streptococcus pneumoniae 5649; assay: In vitro agar dilution MIC, organism code ZZA; conditions: unit assumed
Protocol: as §1, §2, §3

Escherichia coli DC-2 = assay: In vitro agar dilution MIC, organism code SS; conditions: Table 1B, unit assumed
Protocol: as §1, §2, §3

[8] = system: Staphylococcus aureus NCTC10649M; assay: In vitro agar dilution MIC, organism code EE; conditions: Table 1B, unit assumed
Protocol: as §1, §2, §3

[9] = system: Staphylococcus aureus ATCC 6538P; assay: In vitro agar dilution MIC, organism code AA; conditions: unit assumed
Protocol: as §1, §2, §3

Escherichia coli JUHL = assay: In vitro agar dilution MIC, organism code QQ; conditions: Table 1B, in µg/mL (unit assumed)
Protocol: as §1, §2, §3

[10] = system: Mycobacterium smegmatis ATCC 114; assay: In vitro agar dilution MIC, organism code UU; conditions: Table 1B, in µg/mL (unit assumed)
Protocol: as §1, §2, §3

[11] = system: Staphylococcus aureus CMX 642A; assay: In vitro agar dilution MIC, organism code DD; conditions: Table 1B, unit assumed
Protocol: as §1, §2, §3

Candida albicans CCH 442 = assay: In vitro agar dilution MIC, organism code TT; conditions: Table 1B, unit assumed
Protocol: as §1, §2, §3

[12] = system: Staphylococcus aureus CMX 553; assay: In vitro agar dilution MIC, organism code FF; conditions: Table 1B, unit assumed
Protocol: as §1, §2, §3

[13] = system: Staphylococcus aureus 1775; assay: In vitro agar dilution MIC, organism code GG; conditions: Table 1B, unit assumed
Protocol: as §1, §2, §3

[14] = system: Micrococcus luteus ATCC 4698; assay: In vitro agar dilution MIC, organism code PP; conditions: Table 1B, in µg/mL (unit assumed)
Protocol: as §1, §2, §3

[15] = system: Micrococcus luteus ATCC 9341; assay: In vitro agar dilution MIC, organism code OO; conditions: Table 1B, unit assumed
Protocol: as §1, §2, §3

[16] = system: Streptococcus bovis A-5169; assay: In vitro agar dilution MIC, organism code JJ; conditions: Table 1B, unit assumed
Protocol: as §1, §2, §3

[17] = system: Nocardia asteroides ATCC 9970; assay: In vitro agar dilution MIC, organism code VV; conditions: Table 1B, in µg/mL (unit assumed)
Protocol: as §1
as §2, with “comparability. Erythromycin A was used for this purpose.” for “comparability.”
as §3

[18] = system: Streptococcus agalactiae CMX 508; assay: In vitro agar dilution MIC, organism code KK; conditions: Table 1B, unit assumed
Protocol: as §1, §2, §3

[19] = system: Staphylococcus epidermidis 3519; assay: In vitro agar dilution MIC, organism code HH; conditions: Table 1B, in µg/mL (unit assumed)
Protocol: as §1, §2, §3

[20] = system: Streptococcus pneumoniae GYR 1171; assay: In vitro agar dilution MIC, organism code YY; conditions: Table 1B, unit assumed
Protocol: as §1, §2, §3

[21] = system: Enterococcus faecium ATCC 8043; assay: In vitro agar dilution MIC, organism code II; conditions: Table 1B, unit assumed
Protocol: as §1, §2, §3

[22] = system: Staphylococcus aureus A-5278; assay: In vitro agar dilution MIC, organism code CC; conditions: unit assumed
Protocol: as §1, §2, §3

[23] = system: Staphylococcus aureus A5177; assay: In vitro agar dilution MIC, organism code BB; conditions: in µg/mL (unit assumed)
Protocol: as §1, §2, §3

Escherichia coli SS = assay: In vitro agar dilution MIC, organism code RR; conditions: Table 1B, in µg/mL (unit assumed)
Protocol: as §1, §2, §3

| SMILES | MIC (Escherichia coli DC-2) [µg/mL] | MIC [8] [µg/mL] | MIC ([9]; Table 1B) [µg/mL] | MIC ([1]; Table 1B) [µg/mL] | MIC (Escherichia coli JUHL) | MIC [10] | MIC [11] [µg/mL] | MIC (Candida albicans CCH 442) [µg/mL] | MIC [12] [µg/mL] | MIC [13] [µg/mL] | MIC [14] | MIC [15] [µg/mL] | MIC ([3]; Table 1B) [µg/mL] | MIC ([4]; Table 1B) [µg/mL] | MIC ([5]; Table 1B) [µg/mL] | MIC ([6]; Table 1B) [µg/mL] | MIC [16] [µg/mL] | MIC [17] | MIC [18] [µg/mL] | MIC [19] | further results |
| --- | --- | --- | --- | --- | --- | --- | --- | --- | --- | --- | --- | --- | --- | --- | --- | --- | --- | --- | --- | --- | --- |
| CC[C@H]1OC(=O)[C@H](C)C(=O)[C@H](C)[C@@H](O[C@@H]2O[C@H](C)C[C@H](N(C)C)[C@H]2O)[C@](C)(OC/C=C/c2cnc3ccccc3c2)C[C@@H](C)C(=O)[C@H](C)[C@H]2NC(=O)O[C@@]21C [Standard A, reference compound] | – | – | – | – | – | – | – | – | – | – | – | – | – | – | – | – | – | – | – | – | MIC ([1]; Table 1D): 0.25 µg/mL (≈ 0.326 µM); MIC ([2]; Table 1D): 16 µg/mL (≈ 20.9 µM); MIC ([3]; Table 1D): 0.03 µg/mL (≈ 0.0392 µM); MIC ([4]; Table 1D): 1 µg/mL (≈ 1.31 µM); MIC ([5]; Table 1D): 0.03 µg/mL (≈ 0.0392 µM); MIC ([6]; Table 1D): 2 µg/mL (≈ 2.61 µM); MIC ([7]; Table 1D): 0.25 µg/mL (≈ 0.326 µM) |
| CC[C@H]1OC(=O)[C@@](C)(F)C(=O)[C@H](C)[C@@H](O[C@@H]2O[C@H](C)C[C@H](N(C)C)[C@H]2O)[C@](C)(OC/C=C/c2cnc3ccc(NC)cc3c2)C[C@@H](C)C(=O)[C@H](C)[C@H]2NC(=O)O[C@@]21C [Example 16] | 50 (≈ 61.5 µM) | 0.05 (≈ 0.0615 µM) | 0.05 (≈ 0.0615 µM) | 0.05 (≈ 0.0615 µM) | 50 | 0.39 | 0.05 (≈ 0.0615 µM) | > 100 | 0.05 (≈ 0.0615 µM) | > 100 | 0.05 | 0.01 (≈ 0.0123 µM) | 0.03 (≈ 0.0369 µM) | 0.39 (≈ 0.48 µM) | 0.01 (≈ 0.0123 µM) | 2 (≈ 2.46 µM) | ≤ 0.005 | 0.01 | 0.01 (≈ 0.0123 µM) | 0.05 | MIC ([2]; Table 1B): 1 µg/mL (≈ 1.23 µM); MIC ([7]; Table 1B): 0.25 µg/mL (≈ 0.308 µM); MIC [20]: 0.03 µg/mL (≈ 0.0369 µM); MIC [21]: 0.02 µg/mL (≈ 0.0246 µM); MIC ([22]; Table 1B): > 100 µg/mL; MIC ([23]; Table 1B): 0.05; MIC (Escherichia coli SS): 0.2 |
| CC[C@H]1OC(=O)[C@@](C)(F)C(=O)[C@H](C)[C@@H](O[C@@H]2O[C@H](C)C[C@H](N(C)C)[C@H]2O)[C@](C)(OC/C=C/c2cnc3ccc(C=NN)cc3c2)C[C@@H](C)C(=O)[C@H](C)[C@H]2NC(=O)O[C@@]21C [Example 19] | 100 (≈ 121 µM) | 0.2 (≈ 0.242 µM) | 0.1 (≈ 0.121 µM) | 0.2 (≈ 0.242 µM) | 100 | 0.78 | 0.2 (≈ 0.242 µM) | > 100 | 0.2 (≈ 0.242 µM) | > 100 | 0.1 | 0.02 (≈ 0.0242 µM) | 0.06 (≈ 0.0726 µM) | 1.56 (≈ 1.89 µM) | 0.02 (≈ 0.0242 µM) | 2 (≈ 2.42 µM) | ≤ 0.005 | 0.02 | 0.02 (≈ 0.0242 µM) | 0.2 | MIC ([2]; Table 1B): 1 µg/mL (≈ 1.21 µM); MIC ([7]; Table 1B): 0.5 µg/mL (≈ 0.605 µM); MIC [20]: 0.06 µg/mL (≈ 0.0726 µM); MIC [21]: 0.05 µg/mL (≈ 0.0605 µM); MIC ([22]; Table 1B): > 100 µg/mL; MIC ([23]; Table 1B): 0.2; MIC (Escherichia coli SS): 0.78 |
| CC[C@H]1OC(=O)C(C)(F)C(=O)[C@H](C)[C@@H](O[C@@H]2O[C@H](C)C[C@H](N(C)C)[C@H]2O)[C@](C)(OC)C[C@@H](C)C2=NCCN3C(=O)O[C@@]1(C)[C@H]3[C@H]2C (stereo partly drawn) [Example 1] | 25 (≈ 38.1 µM) | 0.2 (≈ 0.305 µM) | 0.1 (≈ 0.152 µM) | 0.2 (≈ 0.305 µM) | > 50 | 0.2 | 0.1 (≈ 0.152 µM) | > 100 | 0.1 (≈ 0.152 µM) | > 100 | 0.2 | 0.02 (≈ 0.0305 µM) | 0.03 (≈ 0.0457 µM) | > 100 | 0.01 (≈ 0.0152 µM) | 2 (≈ 3.05 µM) | 0.01 (≈ 0.0152 µM) | 0.05 | 0.02 (≈ 0.0305 µM) | 0.2 | MIC ([9]; Table 1C): 0.1 µg/mL (≈ 0.152 µM); MIC ([1]; Table 1C): 0.5 µg/mL (≈ 0.762 µM); MIC ([3]; Table 1C): 0.03 µg/mL (≈ 0.0457 µM); MIC ([4]; Table 1C): > 128 µg/mL; MIC ([5]; Table 1C): 0.03 µg/mL (≈ 0.0457 µM); MIC ([6]; Table 1C): 2 µg/mL (≈ 3.05 µM); MIC ([7]; Table 1B): 0.5 µg/mL (≈ 0.762 µM); MIC ([7]; Table 1C): 0.5 µg/mL (≈ 0.762 µM); MIC [20]: 0.03 µg/mL (≈ 0.0457 µM); MIC [21]: 0.05 µg/mL (≈ 0.0762 µM); MIC ([22]; Table 1B): > 100 µg/mL; MIC ([22]; Table 1C): > 100 µg/mL; MIC ([23]; Table 1B): 0.1; MIC ([23]; Table 1C): 0.1; MIC (Escherichia coli SS): 0.2 |
